Data reported in patent US4758555A, “Method for treating convulsions and epilepsy with organic copper compounds” (priority 1986, dated 1988).

Experiments:
[1] = Anticonvulsant activity, both or unspecified seizure models; type: in vivo, male Carworth Farms #1 mice or Sprague-Dawley rats; conditions: for Anticonvulsant activity (in words): running text
[2] = Maximal Electroshock Seizure Test; type: in vivo, male Carworth Farms #1 mice or Sprague-Dawley rats

Cu(II)(L-glutamate)2
Anticonvulsant activity (in words) [1]: found to have anticonvulsant activity

O=C([O-])c1ccccc1O.O=C([O-])c1ccccc1O.[Cu+2].c1ccncc1.c1ccncc1 [Cu(II)(salicylate)2 (pyridine)2]
Onset and duration of anticonvulsant action (in words) [1]: activity representative of a compound with rapid onset
Anticonvulsant activity, Maximal Electroshock (Phase I) ([2]; Table II, IP): I

O.O.O.O=C([O-])c1cc(Br)cc(Br)c1O.O=C([O-])c1cc(Br)cc(Br)c1O.[Cu+2] [Cu(II)(3,5-dibromosalicylate)2 (H2 O)3]
Anticonvulsant activity (in words) [1]: effective in preventing both the Maximal Electroshock and Metrazol-inducedseizures in Phase I studies

Cu(II)2 (benzoate)4
Anticonvulsant activity (in words) [1]: effective in protecting against both Maximal Electroshock and Metrazol-induced seizures

CC(=O)Oc1c(I)cc(I)cc1C(=O)[O-].CC(=O)Oc1c(I)cc(I)cc1C(=O)[O-].O.O.O.[Cu+2] [Cu(II)2 (3,5-diiodoacetylsalicylate)4 (H2 O)6]
Anticonvulsant activity (in words) [1]: effective in protecting against both models of seizure
Anticonvulsant activity, Maximal Electroshock (Phase I) ([2]; Table I, IP): I

CC(C)c1cc(C(=O)[O-])c(O)c(C(C)C)c1.CC(C)c1cc(C(=O)[O-])c(O)c(C(C)C)c1.[Cu+2] [Cu(II)(3,5-diisopropylsalicylate)2]
Anticonvulsant activity (in words) [1]: effective in preventing both the Maximal Electroshock and Metrazol-inducedseizures in Phase I studies

O=C([O-])c1ccccc1OC(=O)C12CC3CC(CC(C3)C1)C2.O=C([O-])c1ccccc1OC(=O)C12CC3CC(CC(C3)C1)C2.O=C([O-])c1ccccc1OC(=O)C12CC3CC(CC(C3)C1)C2.O=C([O-])c1ccccc1OC(=O)C12CC3CC(CC(C3)C1)C2.[Cu+2].[Cu+2] [Cu(II)2 (adamantylsalicylate)4]
Anticonvulsant activity (in words) [1]: anticonvulsant activity at 30 minutes following subcutaneous injection at 30 and 300 mg/kg
Anticonvulsant activity, Maximal Electroshock (Phase I) ([2]; Table I, SC): I

N[C@@H](CO)C(=O)[O-].N[C@@H](CO)C(=O)[O-].[Cu+2] [Cu(II)(L-serinate)2]
Anticonvulsant activity (in words) [1]: found to have anticonvulsant activity

CC(C)C[C@H](N)C(=O)[O-].CC(C)C[C@H](N)C(=O)[O-].[Cu+2] [Cu(II)(L-leucinate)2]
Anticonvulsant activity (in words) [1]: found to have anticonvulsant activity

N[C@@H](Cc1c[nH]c2ccccc12)C(=O)[O-].N[C@@H](Cc1c[nH]c2ccccc12)C(=O)[O-].[Cu+2] [Cu(II)(L-tryptophanate)2]
Anticonvulsant activity (in words) [1]: found to have anticonvulsant activity

CC(C)(C)c1ccc(C(=O)[O-])c(O)c1.CC(C)(C)c1ccc(C(=O)[O-])c(O)c1.CC(C)(C)c1ccc(C(=O)[O-])c(O)c1.CC(C)(C)c1ccc(C(=O)[O-])c(O)c1.O.[Cu+2].[Cu+2] [Cu(II)2 (4-tertiarybutylsalicylate)2.1/2H2 O]
Anticonvulsant activity (in words) [1]: effective at the higher doses studied and for prolonged periods of up to 4 hours
Anticonvulsant activity, Maximal Electroshock (Phase I) ([2]; Table II, SC): I

O.O.O=C([O-])c1cc(Cl)cc(Cl)c1O.O=C([O-])c1cc(Cl)cc(Cl)c1O.[Cu+2] [Cu(II)(3,5-dichlorosalicylate)2 (H2 O)2]
Anticonvulsant activity (in words) [1]: effective in preventing both the Maximal Electroshock and Metrazol-inducedseizures in Phase I studies
Anticonvulsant activity, Maximal Electroshock (Phase I) ([2]; Table II, SC): I

CC(C)(C)c1cc(C(=O)[O-])c(O)c(C(C)(C)C)c1.CC(C)(C)c1cc(C(=O)[O-])c(O)c(C(C)(C)C)c1.[Cu+2] [Cu(II)(3,5-ditertiarybutylsalicylate)2]
Anticonvulsant activity (in words) [1]: effective at the higher doses studied and for prolonged periods of up to 4 hours
Anticonvulsant activity (in words) ([1]; listed as 3,5-ditertiarybutylsalicylate): effective in preventing both the Maximal Electroshock and Metrazol-inducedseizures in Phase I studies

CC(=O)Oc1ccccc1C(=O)[O-].CC(=O)Oc1ccccc1C(=O)[O-].CC(=O)Oc1ccccc1C(=O)[O-].CC(=O)Oc1ccccc1C(=O)[O-].[Cu+2].[Cu+2] [Cu(II)2 (acetylsalicylate)4]
Anticonvulsant activity (in words) [1]: activity at 30 minutes, 6 hours and 8 hours following subcutaneous injection of the entire range of doses studied
Anticonvulsant activity, Maximal Electroshock (Phase I) ([2]; Table I, SC): I
